From US20120116069A1, “GLUCOSE METABOLISM-IMPROVING AGENT AND GLUCOSE METABOLISM-IMPROVING COMPOSITION” (LION CORPORATION, priority 2009, published 2012)

Columns and labels:
[1] = tested on: model mice of hyperglycemia (KKAy mouse); assay: Amount of 13CO2 excreted in exhaled gas after oral glucose-U-13C6; format: in vivo; details: 0.1% by mass in high fat diet for one week, four hours after oral glucose-U-13C6, versus control group
Protocol: Twenty-four model mice of hyperglycemia (KKAy mouse (product of CLEA Japan, Inc.), male, four weeks old) were preliminarily bred for one week in individual cages under the following conditions: temperature: room temperature (22° C.±1° C.), humidity: 50%±5%, and light-dark cycle: 12 hours. Eight grams per day of CE-2 (product of CLEA Japan, Inc.) was given to each mouse as feed during the preliminary breeding, while water was given ad libitum. […] Thereafter, an aqueous solution of glucose and glucose-U-^13C6 was orally administered to each mouse at a concentration calculated from the following: [2.0 g D-glucose (product of NACALAI TESQUE, INC.)+72 mg D-glucose-U-^13C6 (99%) (product of Cambridge Isotope Lab.)/kg-body weight]. Then, the cumulative amount of ^13CO2 excreted was measured for four hours. The cumulative amount of ^13CO2 excreted is expressed as AUC (increment in the amount of ^13CO2 excreted). Here, the AUC (increment in the amount of ^13CO2 excreted) refers to an area corresponding to the increment between the amount of ^13CO2^3 excreted prior to administration of glucose-U-^13C6 (baseline) to the amount of ^13CO2 excreted measured four hours after administration of glucose-U-^13C6 in a graph where a change in the amount of ^13CO2 excreted is plotted against time after administration of glucose-U-^13C6.

[2] = tested on: human subjects having a fasting blood sugar level of 120 mg/dL to 140 mg/dL; assay: Test of PT/PD intake for human: fasting and postprandial blood sugar level, blood indices; format: in vivo; details: for fasting blood sugar level: 8 mg capsule once a day for eight weeks; for fasting blood sugar level / postprandial blood sugar level: compared with the placebo-given group; for postprandial blood sugar level / 1-5AG / Glycoalbumin / HbA1c / Insulin (fasting): 8 mg capsule once a day; for postprandial blood sugar level: 30 min, 60 min and 120 min, starch food load
Protocol: (§1) Panax notoginseng powder (10 g) was suspended in 100 mL of 30% by mass aqueous solution of ethanol, and then saponins were extracted under heating for 2 hours. The obtained extract was hydrolyzed in the presence of hydrochloric acid to prepare an aglycon-containing product. The aglycon-containing product was treated with a silica gel column (SILICA GEL 60N, product of KANTO CHEMICAL CO., LTD.) to isolate and prepare panaxatriol (PT) having a purity of 99% by mass or higher.
Next, capsules each containing 8 mg of the thus-prepared panaxatriol (PT) were prepared. These capsules were given continuously for eight weeks to human subjects of a group (hereinafter may be referred to as “PT-given group”) to measure the fasting blood sugar level and a change in postprandial blood sugar level which was measured after giving to the human subjects predetermined meals such as a meal containing an excessive amount of starch food (e.g., a rice ball formed of 200 g of cooked rice (350 kcal)). Also, the blood indices measured were the blood HbA1c level, the blood glycoalbumin level, the blood 1·5AG level and the fasting blood insulin level.
The blood sugar levels were measured with a simplified blood sugar meter FREESTYLE (product of NIPRO Co.). The fasting blood sugar level and the fasting insulin level were measured at 9 a.m. The postprandial blood sugar level was measured every 30 min for 120 min from 9 a.m. to 11:30 a.m. after the predetermined starch food had been given to the subjects. The HbA1c, glycoalbumin and 1·5AG levels were measured by a routine method of a medical facility using the blood sampled at 9 a.m.
(§2) The 24 subjects were randomly divided to two groups and assigned to a placebo-given group, serving as a control, and a PT-given group. Also, the results were statistically analyzed using the Student's t-test comparing the placebo-given group and the PT-given group. The time at which the capsules were given was set to 10 a.m. every day so that the capsules were not given at the same time as a meal.
as §1, with “panaxadiol (PD)” for “panaxatriol (PT)”
Next, capsules each containing 8 mg of the thus-prepared panaxadiol (PD) were prepared. These capsules were given continuously for eight weeks to human subjects of a group (hereinafter may be referred to as “PD-given group”) to measure the fasting blood sugar level and a change in postprandial blood sugar level which was measured after giving to the human subjects predetermined meals such as a meal containing an excessive amount of starch food (e.g., a rice ball formed of 200 g of cooked rice (350 kcal)). Also, the blood indices measured were the blood HbA1c level, the blood glycoalbumin level, the blood 1·5AG level and the fasting blood insulin level.
as §2, with “and a PD-given group. Also,” for “and a PT-given group. Also,”, “and the PD-given group. The” for “and the PT-given group. The”, “time as the meal.” for “time as a meal.”

Structure (SMILES) | amount of 13CO2 excreted [1] | fasting blood sugar level [2] | postprandial blood sugar level [2] | 1-5AG ([2]; Week 0) [µg/mL] | Glycoalbumin ([2]; Week 0) [% by mass] | HbA1c ([2]; Week 0) [% by mass] | Insulin (fasting) ([2]; Week 0) [μU/mL] | 1-5AG ([2]; Week 2) [µg/mL] | Glycoalbumin ([2]; Week 2) [% by mass] | HbA1c ([2]; Week 2) [% by mass] | Insulin (fasting) ([2]; Week 2) [μU/mL] | 1-5AG ([2]; Week 4) [µg/mL] | Glycoalbumin ([2]; Week 4) [% by mass] | HbA1c ([2]; Week 4) [% by mass] | Insulin (fasting) ([2]; Week 4) [μU/mL] | 1-5AG ([2]; Week 8) [µg/mL] | Glycoalbumin ([2]; Week 8) [% by mass] | HbA1c ([2]; Week 8) [% by mass] | Insulin (fasting) ([2]; Week 8) [μU/mL]
CC1(C)CCC[C@](C)([C@H]2CC[C@]3(C)[C@@H]2[C@H](O)C[C@@H]2[C@@]4(C)CC[C@H](O)C(C)(C)[C@@H]4CC[C@]23C)O1 [PD, panaxadiol] | significantly increased | decreased significantly | decrease significantly | 24.4 ± 7.8 | 14.8 ± 1.4 | 5.1 ± 0.1 | 5.6 ± 1.4 | 24.1 ± 7.2 | 14.5 ± 1.2 | 5.1 ± 0.2 | 5.9 ± 2.2 | 25.0 ± 7.3 | 14.3 ± 1.3 | 5.1 ± 0.1 | 5.9 ± 3.8 | 25.7 ± 6.4 | 14.2 ± 1.1 | 4.8 ± 0.1 | 6.1 ± 2.6
CC1(C)CCC[C@](C)([C@H]2CC[C@]3(C)[C@@H]2[C@H](O)C[C@@H]2[C@@]4(C)CC[C@H](O)C(C)(C)[C@@H]4[C@@H](O)C[C@]23C)O1 [PT, panaxatriol] | significantly increased | decreased significantly | decrease significantly | 24.3 ± 7.7 | 14.7 ± 1.3 | 5.1 ± 0.1 | 5.5 ± 1.5 | 24.2 ± 7.1 | 14.5 ± 1.3 | 5.1 ± 0.2 | 6.1 ± 2.1 | 25.0 ± 7.5 | 14.3 ± 1.3 | 5.1 ± 0.1 | 5.8 ± 4.2 | 25.6 ± 6.3 | 14.2 ± 1.3 | 4.8 ± 0.2 | 6.2 ± 2.4
